{"source": "patent US10662481B2", "about": "“Methods for predicting response to HDACi/DNMTi combination in multiple myeloma” (INSERM (INSTITUT NATIONAL DE LA SANTÉ ET DE LA RECHERCHE …, priority 2014, dated 2020)", "format_in_all_cases": "cell-based, human", "details_in_all_cases": "0.5 μM decitabine, mean ± SD of viable cells, 3 experiments", "key": {"XG-5": {"system": "XG-5", "experiment": "Cell viability of HMCLs by trypan blue exclusion (XG-5)"}, "XG-6": {"system": "XG-6", "experiment": "Cell viability of HMCLs by trypan blue exclusion (XG-6)"}, "XG-7": {"system": "XG-7", "experiment": "Cell viability of HMCLs by trypan blue exclusion (XG-7)"}, "XG-20": {"system": "XG-20", "experiment": "Cell viability of HMCLs by trypan blue exclusion (XG-20)"}, "LP1": {"system": "LP1", "experiment": "Cell viability of HMCLs by trypan blue exclusion (LP1)"}}}
{"smiles": "Nc1ncn([C@H]2C[C@H](O)[C@@H](CO)O2)c(=O)n1", "note": "[5-aza, 5-aza-2′-deoxycytidine]", "values": [{"measurement": "Cell viability (%) Day 3 5-aza", "setting": "XG-5", "value": "65 ± 5", "unit": "%"}, {"measurement": "Cell viability (%) Day 3 5-aza", "setting": "XG-6", "value": "90 ± 1", "unit": "%"}, {"measurement": "Cell viability (%) Day 3 5-aza", "setting": "XG-7", "value": "90 ± 2", "unit": "%"}, {"measurement": "Cell viability (%) Day 3 5-aza", "setting": "XG-20", "value": "91 ± 3", "unit": "%"}, {"measurement": "Cell viability (%) Day 3 5-aza", "setting": "LP1", "value": "91 ± 2", "unit": "%"}]}
